Measured values published in ChEMBL document CHEMBL1201862, “PubChem BioAssay data set” (2004).
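96-well plates; 48 h exposure; 5 concentrations. Endpoints by linear interpolation between flanking doses. Not reached: highest tested concentration assigned. GI50 marks 50% less growth.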 Activity calls are given as the source filed them. Cut-off read from the data, not from the text of the source: active = GI50 up to about 1.1 µM and inactive = higher.

Assays:
Assay in all cases: growth of human tumour cells (NCI), 48 h
786-0 = system: 786-0
CAKI-1 = system: CAKI-1
HCT-116 = system: HCT-116
HL-60 = system: HL-60
HT-29 = system: HT-29
KM12 = system: KM12
Malme-3M = system: Malme-3M
NCI-H460 = system: NCI-H460
OVCAR-3 = system: OVCAR-3
OVCAR-5 = system: OVCAR-5
RPMI-8226 = system: RPMI-8226
RXF 393 = system: RXF 393
SF-539 = system: SF-539
SK-MEL-28 = system: SK-MEL-28
SN12C = system: SN12C
SNB-75 = system: SNB-75
TK-10 = system: TK-10
UACC-257 = system: UACC-257
UACC-62 = system: UACC-62
UO-31 = system: UO-31

Row | Structure (SMILES) | GI50 (786-0) | GI50 (CAKI-1) | GI50 (HCT-116) | GI50 (HL-60) | GI50 (HT-29) | GI50 (KM12) | GI50 (Malme-3M) | GI50 (NCI-H460) | GI50 (OVCAR-3) | GI50 (OVCAR-5) | GI50 (RPMI-8226) | GI50 (RXF 393) | GI50 (SF-539) | GI50 (SK-MEL-28) | GI50 (SN12C) | GI50 (SNB-75) | GI50 (TK-10) | GI50 (UACC-257) | GI50 (UACC-62) | GI50 (UO-31)
1 | S=C(Cc1ccc2c(c1)Sc1ccccc1O2)N1CCOCC1 | 56.9 µM (inactive) | 38.9 µM (inactive) | 8.32 µM (inactive) | 16 µM (inactive) | 24.6 µM (inactive) | 29 µM (inactive) | 23.8 µM (inactive) | 23.5 µM (inactive) | 49.5 µM (inactive) | > 100 µM (inactive) | 34.8 µM (inactive) | 69.8 µM (inactive) | 21.2 µM (inactive) | 59.7 µM (inactive) | > 100 µM (inactive) | 18.7 µM (inactive) | > 100 µM (inactive) | 31.4 µM (inactive) | 28.6 µM (inactive) | 26.1 µM (inactive)
2 | O=c1[nH]nc(-c2ccccc2)n1/N=C/c1ccccc1Cl | 32.5 µM (inactive) | 36.6 µM (inactive) | 33.9 µM (inactive) | 19.5 µM (inactive) | 28.9 µM (inactive) | 12 µM (inactive) | 20.3 µM (inactive) | 13 µM (inactive) | 23.8 µM (inactive) | > 100 µM (inactive) | 21.1 µM (inactive) | 25.4 µM (inactive) | 39.3 µM (inactive) | 52 µM (inactive) | 48.8 µM (inactive) | 36.5 µM (inactive) | 75.9 µM (inactive) | 64 µM (inactive) | 20 µM (inactive) | 42.8 µM (inactive)
3 | COc1c2c(nc3ccccc13)-c1cc3c(c(=O)n1C2)COC(=O)C3(O)CC(=O)N1CCOCC1 (stereo not given) | 2.07 µM (inactive) | 3.79 µM (inactive) | 6.55 µM (inactive) | 2.72 µM (inactive) | 17.3 µM (inactive) | 17.1 µM (inactive) | 16.3 µM (inactive) | 1.17 µM (inactive) | 19.4 µM (inactive) | 11.4 µM (inactive) | 6.43 µM (inactive) | 6.01 µM (inactive) | 0.964 µM (active) | 17 µM (inactive) | 1.59 µM (inactive) | 1.35 µM (inactive) | 75 µM (inactive) | 19 µM (inactive) | 0.76 µM (active) | 7.16 µM (inactive)
4 | CCC1=CCN(c2ccc(C)cc2)OC1c1ccc(OC)cc1 (stereo not given) | > 100 µM (inactive) | 94.8 µM (inactive) | 59.6 µM (inactive) | 68.2 µM (inactive) | 33.8 µM (inactive) | > 100 µM (inactive) | 66.4 µM (inactive) | > 100 µM (inactive) | > 100 µM (inactive) | > 100 µM (inactive) | 43.3 µM (inactive) | 69.7 µM (inactive) | > 100 µM (inactive) | 50.2 µM (inactive) | > 100 µM (inactive) | > 100 µM (inactive) | > 100 µM (inactive) | 37 µM (inactive) | > 100 µM (inactive) | 90.6 µM (inactive)
5 | COc1ccc(OC)c(/C=C/NC=O)c1 | > 100 µM (inactive) | > 100 µM (inactive) | > 100 µM (inactive) | > 100 µM (inactive) | > 100 µM (inactive) | > 100 µM (inactive) | > 100 µM (inactive) | > 100 µM (inactive) | > 100 µM (inactive) | > 100 µM (inactive) | > 100 µM (inactive) | > 100 µM (inactive) | > 100 µM (inactive) | > 100 µM (inactive) | > 100 µM (inactive) | > 51.6 µM (inactive) | > 100 µM (inactive) | > 100 µM (inactive) | > 100 µM (inactive) | > 100 µM (inactive)
6 | Cc1ccccc1N1C(=O)C2C=CC(n3[nH]c(=O)n(Cc4ccccc4)c3=O)CC2C1=O (stereo not given) | > 100 µM (inactive) | > 100 µM (inactive) | > 100 µM (inactive) | > 100 µM (inactive) | > 100 µM (inactive) | > 100 µM (inactive) | > 100 µM (inactive) | > 100 µM (inactive) | > 100 µM (inactive) | > 100 µM (inactive) | > 100 µM (inactive) | > 100 µM (inactive) | > 100 µM (inactive) | > 100 µM (inactive) | > 100 µM (inactive) | 70 µM (inactive) | > 100 µM (inactive) | > 100 µM (inactive) | > 100 µM (inactive) | > 100 µM (inactive)
7 | N#CC1(c2nc3ccccc3o2)C(=O)C(=O)N(C2C3CC4CC(C3)CC2C4)C(=O)C1=O (stereo not given) | > 100 µM (inactive) | > 100 µM (inactive) | > 100 µM (inactive) | 42 µM (inactive) | > 100 µM (inactive) | > 100 µM (inactive) | > 100 µM (inactive) | > 100 µM (inactive) | > 100 µM (inactive) | > 100 µM (inactive) | 26.4 µM (inactive) | > 100 µM (inactive) | > 100 µM (inactive) | > 100 µM (inactive) | > 100 µM (inactive) | > 100 µM (inactive) | > 100 µM (inactive) | > 100 µM (inactive) | > 100 µM (inactive) | > 100 µM (inactive)
8 | COc1ccc(N(C)C(=O)N(C)c2ccc([N+](=O)[O-])cc2)cc1 | 58.9 µM (inactive) | 41.6 µM (inactive) | 27.4 µM (inactive) | 31 µM (inactive) | 28.6 µM (inactive) | 18.8 µM (inactive) | 36.2 µM (inactive) | 25.8 µM (inactive) | 26.7 µM (inactive) | 39.9 µM (inactive) | 51.1 µM (inactive) | 14.3 µM (inactive) | 29.6 µM (inactive) | 50.2 µM (inactive) | 61.4 µM (inactive) | 29.6 µM (inactive) | 10.5 µM (inactive) | 26.1 µM (inactive) | 33.9 µM (inactive) | 41.4 µM (inactive)
